The results in this text go back to publication PMC3025922 (BMC Biology, 2010).

Structures are written as SMILES. Like-named read-outs stand apart in the source and are kept apart here.

The subject of this test is nuclear p27 in LNCaP-S14 cells. The format is cell-based, human.
The mark [1] stands for this setting: primary screening, nuclear p27 in LNCaP-S14 cells.
Where [2] appears, read: primary screening, S = strong, M = medium, W = weak by Z score.

As to `CCC(C(=O)[O-])C1CCC(C)C(C(C)C(O)C(C)C(=O)C(CC)C2OC3(C=CC(O)C4(CCC(C)(C5CCC(O)(CC)C(C)O5)O4)O3)C(C)CC2C)O1.[Na+]` (stereo not drawn) [502H07], under setting [1], the “Z score (aver)” value is 6.22. The Clasf result under setting [2] is “S (strong (Z score > 5))”.
Consider `Oc1ccc(Cl)cc1Cc1cc(Cl)ccc1O` [501G22], for which the “Z score (aver)” value under setting [1] amounted to 4.38. For the same compound, the Clasf result under setting [2] is recorded as “M (medium (Z score 3-5))”.
In the case of `O=C(O)C1CCCNC1` (stereo not drawn) [500H10], the Clasf entry is given as “M (key: S: strong (Z score > 5); M: medium (Z score 3-5); W: weak (Z score 2-3)” and the “Z score (aver)” value worked out at 3.12.
As for `Clc1ccccc1C(c1ccccc1)(c1ccccc1)n1ccnc1` [1568F16], the Clasf entry is reported as “W (key: S: strong (Z score > 5); M: medium (Z score 3-5); W: weak (Z score 2-3)” and the “Z score (aver)” value stood at 2.26.
In the case of `CCC1(O)C(=O)OCc2c1cc1n(c2=O)Cc2cc3ccccc3nc2-1` (stereo not drawn) [1568H21], the “Z score (aver)” value under setting [1] is 4.82. Also, the Clasf result under setting [2] is recorded as “M (medium (Z score 3-5))”.
As to `Cc1cc(C(=O)Sc2cccc(Br)c2)nn1C(C)(C)C` [1520N02], under setting [1], the “Z score (aver)” value worked out at 5.16. Under setting [2], the Clasf result is “S (strong (Z score > 5))”.
Take `CCOC(=O)c1cc2cccc(NC(=O)c3ccccc3OC(C)=O)c2[nH]1` [519O17]: under setting [1], the “Z score (aver)” value amounted to 9.25. Further, under setting [2], the Clasf entry is “S (strong (Z score > 5))”.
As for `CC1=NC(=Cc2sccc2C)C(=O)O1` [1520B10], the “Z score (aver)” value under setting [1] was found to be 2.27. The Clasf entry under setting [2] is “W (weak (Z score 2-3)”.
On to `CCOC(=O)c1cc2cccc(NS(=O)(=O)c3cccc(C(F)(F)F)c3)c2[nH]1` [520F11], for which, under setting [1], the “Z score (aver)” value was determined as 7.25. Besides, under setting [2], the Clasf result is on record as “S (strong (Z score > 5))”.
In the case of `OCCN1CCN(CCCN2c3ccccc3Sc3ccc(Cl)cc32)CC1` [1568I12], the “Z score (aver)” value under setting [1] was determined as 3.13. In addition, the Clasf result under setting [2] is reported as “M (medium (Z score 3-5))”.
In the case of `COC(=O)C1=C(N)n2c(sc(=Cc3ccc(Cl)cc3)c2=O)=C(C(=O)OC)C1c1ccc(Cl)cc1` (stereo not drawn) [1159F17], the “Z score (aver)” value under setting [1] was 2.15. In addition, the Clasf entry under setting [2] was “W (weak (Z score 2-3)”.
In the case of `COc1ccccc1NC(=O)N(Cc1cccc(Cl)c1)c1ccc2[nH]c(C(C)(C)C)cc2c1` [522L04], under setting [1], the “Z score (aver)” value stood at 4.02. Also, the Clasf entry under setting [2] is listed as “M (medium (Z score 3-5))”.
Taken in the same sequence, the figures for `CC(C)(C)c1cc2cc(NC(=O)c3cccs3)ccc2[nH]1` [520D16] were 3.98 and “M (medium (Z score 3-5))”.
For `Cc1ccc(C(=O)C2C(c3ccccc3I)C(C#N)(C#N)C3c4ccccc4C=CN23)cc1` (stereo not drawn) [669K08], the “Z score (aver)” value under setting [1] was 2.72. Moreover, the Clasf entry under setting [2] was “W (weak (Z score 2-3)”.
Taken in the same sequence, the figures for `COc1cc(C#N)ccc1OC(=O)Cc1coc2ccc3ccccc3c12` [1715D21] were 2.52 and “W (weak (Z score 2-3)”.
As for `CCCCc1ccc2nc(NC(=O)C3=NN(C)C(=O)CC3)sc2c1` [1715B12], the “Z score (aver)” value under setting [1] was found to be 2.67. Besides, the Clasf result under setting [2] is “W (weak (Z score 2-3)”.
Taken in the same sequence, the figures for `O=C(OCn1ncc(Cl)c(Cl)c1=O)c1cccc(C(F)(F)F)c1` [567M11] were 4.23 and “M (medium (Z score 3-5))”.
Turning to `Cl.OC(c1cc(C(F)(F)F)nc2c(C(F)(F)F)cccc12)C1CCCCN1` (stereo not drawn) [1568I14], the “Z score (aver)” value under setting [1] came out at 8.87. Also, the Clasf result under setting [2] is given as “S (strong (Z score > 5))”.
On to `Cc1ccc(C)n1-c1ccccc1CNS(=O)(=O)c1ccc(Cl)cc1` [669P04], for which, under setting [1], the “Z score (aver)” value came to 5.53. The Clasf result under setting [2] is on record as “S (strong (Z score > 5))”.
Taken in the same sequence, the figures for `CN(C)CCC=C1c2ccccc2Sc2ccc(Cl)cc21.Cl` [1569E17] were 3.86 and “M (medium (Z score 3-5))”.
Taken in the same sequence, the figures for `COc1ccc(S(=O)(=O)Nc2ccc3[nH]c(C(C)(C)C)cc3c2)cc1` [521I17] were 3.94 and “M (medium (Z score 3-5))”.
